Measured values taken from ChEMBL document CHEMBL1201862, “PubChem BioAssay data set” (2004).
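Following 48 hours of exposure in 96-well plates, responses at five concentrations were used to interpolate endpoints linearly. GI50 marks 50% less growth.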 The source made the active and inactive calls. Cut-off read from the data, not from the text of the source: active = GI50 up to about 1.1 µM and inactive = higher.

Key:
Assay in all cases: NCI-60 cell line screen, 48 h
M19-MEL = test system: M19-MEL
HOP-18 = test system: HOP-18
RXF 631 = test system: RXF 631
DLD-1 = test system: DLD-1
XF498 = test system: XF498
DMS-273 = test system: DMS-273
KM-20L2 = test system: KM-20L2
LXFL 529 = test system: LXFL 529
SNB-78 = test system: SNB-78

Measured: GI50

CSC(=S)c1ccc(C(=S)SC)cc1
inactive: M19-MEL > 100 µM | HOP-18 > 100 µM | RXF 631 > 100 µM | DLD-1 > 100 µM | XF498 > 100 µM | DMS-273 > 100 µM | KM-20L2 > 100 µM | LXFL 529 > 100 µM | SNB-78 > 100 µM

O=C(O)CCC(N/C=C1/N=C(c2ccccc2)OC1=O)C(=O)O (stereo unspecified)
inactive: M19-MEL > 100 µM | HOP-18 36.1 µM | RXF 631 > 100 µM | DLD-1 > 100 µM | DMS-273 > 100 µM | KM-20L2 > 100 µM | LXFL 529 > 100 µM | SNB-78 > 100 µM

O=C1c2ccccc2C(=O)N1/N=C\c1ccc(Br)cc1
inactive: M19-MEL > 10 µM | HOP-18 > 10 µM | RXF 631 > 10 µM | DLD-1 > 10 µM | XF498 > 10 µM | DMS-273 > 10 µM | KM-20L2 > 10 µM | LXFL 529 > 10 µM | SNB-78 > 10 µM

CCCCCCCCCCC(=O)CC(=O)c1c(O)cccc1O
inactive: M19-MEL 25.8 µM | HOP-18 18.9 µM | RXF 631 47.3 µM | DLD-1 44.6 µM | XF498 19.5 µM | DMS-273 23.8 µM | KM-20L2 50.2 µM | LXFL 529 36.3 µM | SNB-78 33.5 µM

CC(=O)OCC1(C)C(OC(C)=O)CCC2(C)C(CC(OC(C)=O)C3=CCOC3=O)C(O)(CO)CCC12 (stereo unspecified)
inactive: M19-MEL > 100 µM | HOP-18 > 100 µM | RXF 631 > 100 µM | DLD-1 > 100 µM | XF498 > 100 µM | DMS-273 > 100 µM | KM-20L2 > 100 µM | LXFL 529 > 100 µM | SNB-78 > 100 µM

COc1ccc(Cc2c(=O)[nH]nc3ccccc23)cc1
inactive: M19-MEL > 100 µM | HOP-18 > 100 µM | RXF 631 > 100 µM | DLD-1 > 100 µM | XF498 33 µM | DMS-273 > 100 µM | KM-20L2 > 100 µM | SNB-78 > 100 µM

COc1cccc2c1N[S@](=O)S2
inactive: M19-MEL 35.6 µM | RXF 631 > 100 µM | DLD-1 72.9 µM | XF498 50.8 µM | DMS-273 > 100 µM | KM-20L2 > 100 µM | LXFL 529 35.3 µM | SNB-78 > 100 µM

COc1ccc(/C(Cl)=C(\C=O)c2ccc([N+](=O)[O-])cc2)cc1OC
inactive: M19-MEL 11 µM | HOP-18 10.5 µM | RXF 631 12.4 µM | XF498 7.4 µM | DMS-273 11.8 µM | KM-20L2 12.2 µM | LXFL 529 3.23 µM | SNB-78 4.3 µM

Cc1ccccc1/C=N/C12CC3CC(CC(C3)C1)C2
inactive: M19-MEL > 100 µM | HOP-18 > 100 µM | RXF 631 > 100 µM | DLD-1 > 100 µM | DMS-273 > 100 µM | KM-20L2 > 100 µM | LXFL 529 > 100 µM | SNB-78 > 100 µM
